Where two headings read alike, the source gives them in different places.
Tests used:
[1] = system: pathogenic micro-organisms occurring in the discharges of patients suffering from chronic otitis; experiment: treatment of the ear discharges by antibacterial agents (sensitivity, Table 2); format: cell-based; conditions: for A = therapeutically active (sensitive) / M = moderately active / R = inactive (resistant): number of cases of 510 examinations; for Act. = activity %: share of active cases, 510 examinations
Description: In the Department for Otorhinolaryngology of the Medical University of Debrecen, adult and child patients were examined to identify the types of pathogenic micro-organisms occurring in the discharges of patients suffering from chronic otitis (otitis media chronica); the discharges of 510 patients were analyzed for the bacterial infection.
Symbols used in Table 2:
0 = number of the cases not examined
A = therapeutically active (sensitive)

[2] = cited from earlier work
[3] = system: several gram-positive and gram-negative bacteria such as Pseudomonas aeruginosa; conditions: in vitro conditions; M. F. Parry et al.; cited from earlier work
[4] = mice; oral administration; cited from earlier work
[5] = single-component treatment: aqueous solutions of sulfhydryl compounds; format: in vivo, patients; conditions: acetylcysteine solution
[6] = dogs; oral administration; cited from earlier work
[7] = rats; oral administration; cited from earlier work
[8] = mucolytic (viscosity-reducing) effect of sulfhydryl compounds; conditions: comparison of compounds containing a sulfhydryl group
[9] = single-component treatment: 1% tobramycin solution in chronic mesotympanic otitis; format: in vivo, patients; conditions: 1% solution
Excerpt: (§1) Several compositions according to the invention were also studied with omitting one active ingredient of the composition in order to support the progressive character of the multi-active-component type composition according to the invention. These experiments led to the following results.

[10] = single-component treatment: 1% tobramycin solution in external otitis; format: in vivo, patients; conditions: 1% solution
Excerpt: as §1

[11] = with sulfhydryl-containing compounds, particularly acetylcysteine

CC1(C)S[C@@H]2[C@H](NC(=O)[C@H](N)c3ccccc3)C(=O)N2[C@H]1C(=O)O [Ampicillin]
A = therapeutically active (sensitive) [1]: 72
M = moderately active [1]: 11
R = inactive (resistant) [1]: 120
Act. = activity % [1]: 40.8%

CC1(C)S[C@@H]2[C@H](NC(=O)C(C(=O)O)c3ccccc3)C(=O)N2[C@H]1C(=O)O (stereo partly shown) [Carbenicillin]
A = therapeutically active (sensitive) [1]: 137
M = moderately active [1]: 22
R = inactive (resistant) [1]: 91
Act. = activity % [1]: 63.6%

O=C(Cc1cccs1)N[C@@H]1C(=O)N2C(C(=O)[O-])=C(C[n+]3ccccc3)CS[C@H]12 [Cephaloridin]
A = therapeutically active (sensitive) [1]: 170
M = moderately active [1]: 27
R = inactive (resistant) [1]: 182
Act. = activity % [1]: 51.9%

O=C(N[C@H](CO)[C@H](O)c1ccc([N+](=O)[O-])cc1)C(Cl)Cl [Chloramphenicol]
A = therapeutically active (sensitive) [1]: 106
M = moderately active [1]: 11
R = inactive (resistant) [1]: 197
Act. = activity % [1]: 37.2%

CC[C@H]1OC(=O)[C@H](C)[C@@H](O[C@H]2C[C@@](C)(OC)[C@@H](O)[C@H](C)O2)[C@H](C)[C@@H](O[C@@H]2O[C@H](C)C[C@H](N(C)C)[C@H]2O)[C@](C)(O)C[C@@H](C)C(=O)[C@H](C)[C@@H](O)[C@]1(C)O [Erythromycin]
A = therapeutically active (sensitive) [1]: 113
M = moderately active [1]: 6
R = inactive (resistant) [1]: 208
Act. = activity % [1]: 36.4%
influence of sulfhydryl-containing compounds on absorption from the stomach ([2]; in vivo): not disadvantageously influenced by the sulfhydryl-containing compounds

COc1cccc(OC)c1C(=O)N[C@@H]1C(=O)N2[C@@H]1SC(C)(C)[C@@H]2C(=O)O [Meticillin]
A = therapeutically active (sensitive) [1]: 146
M = moderately active [1]: 27
R = inactive (resistant) [1]: 95
Act. = activity % [1]: 64.6%

CC(=O)N[C@@H](CS)C(=O)O [N-acetyl-L-cysteine]
synergistic effect with several antibiotics [3]: shows a synergistic effect with several antibiotics
LD50 [4]: 3000 mg/kg of body-weight
character of the discharge under treatment [5]: rather took the form of a precipitate
LD50 [6]: 1000 mg/kg of body-weight
LD50 [7]: 6000 mg/kg of body-weight
mucolytic effect [8]: most useful mucolytic agent

CO[C@H]1C[C@H](O[C@H]2[C@H](C)[C@@H](O[C@@H]3O[C@H](C)C[C@H](N(C)C)[C@H]3O)[C@@H](C)C[C@@]3(CO3)C(=O)[C@H](C)[C@@H](O)[C@@H](C)[C@@H](C)OC(=O)[C@@H]2C)O[C@@H](C)[C@@H]1O [Oleandomycin]
A = therapeutically active (sensitive) [1]: 114
M = moderately active [1]: 4
R = inactive (resistant) [1]: 179
Act. = activity % [1]: 39.7%

Cc1onc(-c2ccccc2)c1C(=O)N[C@@H]1C(=O)N2[C@@H]1SC(C)(C)[C@@H]2C(=O)O [Oxacillin]
A = therapeutically active (sensitive) [1]: 191
M = moderately active [1]: 13
R = inactive (resistant) [1]: 77
Act. = activity % [1]: 72.6%

CC1(C)S[C@@H]2[C@H](NC(=O)Cc3ccccc3)C(=O)N2[C@H]1C(=O)O [Penicillin]
A = therapeutically active (sensitive) [1]: 67
M = moderately active [1]: 22
R = inactive (resistant) [1]: 218
Act. = activity % [1]: 29.4%

[H]/N=C(/N)N[C@H]1[C@H](O)[C@@H](O)[C@H](O[C@@H]2O[C@@H](C)[C@](O)(C=O)[C@H]2O[C@@H]2O[C@@H](CO)[C@H](O)[C@@H](O)[C@@H]2NC)[C@@H](N/C(N)=N\[H])[C@@H]1O [Streptomycin]
A = therapeutically active (sensitive) [1]: 39
M = moderately active [1]: 42
R = inactive (resistant) [1]: 87
Act. = activity % [1]: 48.2%

CN(C)[C@@H]1C(=O)C(C(N)=O)=C(O)[C@@]2(O)C(=O)C3=C(O)c4c(O)cccc4[C@@](C)(O)[C@H]3C[C@@H]12 [Tetracyclin]
A = therapeutically active (sensitive) [1]: 79
M = moderately active [1]: 16
R = inactive (resistant) [1]: 279
Act. = activity % [1]: 25.4%

NC[C@H]1O[C@H](O[C@H]2[C@H](O)[C@@H](O[C@H]3O[C@H](CO)[C@@H](O)[C@H](N)[C@H]3O)[C@H](N)C[C@@H]2N)[C@H](N)C[C@@H]1O [Tobramycin, tobramycin]
A = therapeutically active (sensitive) [1]: 116
M = moderately active [1]: 86
R = inactive (resistant) [1]: 61
Act. = activity % [1]: 79.2%
influence of sulfhydryl-containing compounds on absorption from the stomach ([2]; in vivo): not disadvantageously influenced by the sulfhydryl-containing compounds
substantial improvement of the pathological processes, % of patients [9]: about 60%
substantial improvement, % of patients [10]: ≤ 40%

CC1(C)S[C@@H]2[C@H](NC(=O)[C@H](N)c3ccc(O)cc3)C(=O)N2[C@H]1C(=O)O [amoxicillin]
influence of sulfhydryl-containing compounds on absorption from the stomach [2, 11]: not disadvantageously influenced by the sulfhydryl-containing compounds

N[C@@H](CSCC(=O)O)C(=O)O [carbocysteine]
mucolytic effect [8]: mucolytic effect can also be shown

O=C(O)C(S)C(S)C(=O)O (stereo not shown) [dimercaptosuccinate]
mucolytic effect [8]: mucolytic effect can also be shown

CCN(CC)C(=S)SSC(=S)N(CC)CC [disulfiram]
mucolytic effect [8]: mucolytic effect can also be shown

O[C@H](CS)[C@@H](O)CS [dithioerythritol]
mucolytic effect [8]: mucolytic effect can also be shown

C[C@H]1c2cccc(O)c2C(O)=C2C(=O)[C@]3(O)C(O)=C(C(N)=O)C(=O)[C@@H](N(C)C)[C@@H]3[C@@H](O)[C@@H]21 [doxycyclin]
influence of sulfhydryl-containing compounds on absorption from the stomach [2, 11]: not disadvantageously influenced by the sulfhydryl-containing compounds

N[C@@H](CCC(=O)N[C@@H](CS)C(=O)NCC(=O)O)C(=O)O [glutathione]
mucolytic effect [8]: mucolytic effect can also be shown

CC(C)(CO)[C@@H](O)C(=O)NCCC(=O)NCCS [pantetheine]
mucolytic effect [8]: mucolytic effect can also be shown

Gentamycin
A = therapeutically active (sensitive) [1]: 65
M = moderately active [1]: 72
R = inactive (resistant) [1]: 118
Act. = activity % [1]: 53.7%

Polymyxin B
A = therapeutically active (sensitive) [1]: 69
M = moderately active [1]: 8
R = inactive (resistant) [1]: 103
Act. = activity % [1]: 42.7%

neomycin
A = therapeutically active (sensitive) [1]: 27
M = moderately active [1]: 13
R = inactive (resistant) [1]: 5
Act. = activity % [1]: 88.9%
influence of sulfhydryl-containing compounds on absorption from the stomach ([2]; in vivo): not disadvantageously influenced by the sulfhydryl-containing compounds
